According to PubChem BioAssay (NCI):
Several values for one entry are separate records, joined by “and”; a condition that tells them apart may be missing. Identical values can stand only once.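 Briefly, cells in 96-well plates were exposed to five compound concentrations for 48 h, and endpoints were estimated by linear interpolation. GI50 is the concentration that inhibits growth by half. TGI: concentration producing complete growth inhibition.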

Experiments:
Assay in all cases: NCI tumour cell line growth inhibition, 48 h
T-47D breast = test system: T-47D breast
NCI-H23 lung = test system: NCI-H23 lung
BT-549 breast = test system: BT-549 breast
SK-MEL-28 melanoma = test system: SK-MEL-28 melanoma
OVCAR-5 ovarian = test system: OVCAR-5 ovarian
SF-268 CNS = test system: SF-268 CNS
SF-539 CNS = test system: SF-539 CNS
CCRF-CEM leukemia = test system: CCRF-CEM leukemia
TK-10 renal = test system: TK-10 renal
SK-OV-3 ovarian = test system: SK-OV-3 ovarian

Structure (SMILES)	TGI (T-47D breast)	TGI (NCI-H23 lung)	TGI (BT-549 breast)	TGI (SK-MEL-28 melanoma)	TGI (OVCAR-5 ovarian)	TGI (SF-268 CNS)	TGI (SF-539 CNS)	TGI (CCRF-CEM leukemia)	TGI (TK-10 renal)	TGI (SK-OV-3 ovarian)	GI50 (T-47D breast)	GI50 (NCI-H23 lung)	GI50 (BT-549 breast)	GI50 (SK-MEL-28 melanoma)	GI50 (OVCAR-5 ovarian)	GI50 (SF-268 CNS)	GI50 (SF-539 CNS)	GI50 (TK-10 renal)	GI50 (SK-OV-3 ovarian)	GI50 (CCRF-CEM leukemia)
Cc1cc(O)c2c3c(ccc2c1)C(=O)c1c(O)cccc1C3=O	> 100 µM	> 100 µM	> 100 µM	> 100 µM	> 100 µM	> 45 µM	50.5 µM	> 100 µM	> 100 µM	> 100 µM	–	–	–	–	–	–	–	–	–	–
c1ccc(CN2COc3c(ccc4c5c(ccc34)CN(Cc3ccccc3)CO5)C2)cc1	> 100 µM	> 100 µM	> 100 µM	> 100 µM	> 100 µM	> 100 µM	> 100 µM	> 100 µM	> 100 µM	> 100 µM	–	–	–	–	–	–	–	–	–	–
O=C(c1ccco1)c1c(C(F)(F)F)n([O-])c2cc(F)c(F)cc2[n+]1=O	22.7 µM	1.86 µM	0.389 µM	2.58 µM	2.38 µM	1.09 µM	0.679 µM	> 23 µM	1.02 µM	1.11 µM	782 nM	0.497 µM	0.163 µM	0.416 µM	670 nM	0.29 µM	0.329 µM	204 nM	0.346 µM	–
Nc1nc2ccccc2c2c1S(=O)(=O)c1ccc(Cl)cc1C2=O	> 50 µM	> 50 µM	> 50 µM	14.1 µM	4.62 µM	> 50 µM	3.62 µM	4 µM	> 50 µM	44.8 µM	1240 nM	2.48 µM	1.91 µM	2.09 µM	1420 nM	1.83 µM	1.3 µM	1930 nM	6.9 µM	0.623 µM
N#C/C(=C\c1cc2ccc(N3CCC3)cc2oc1=O)C(=O)N(CC(=O)O)CC(=O)O	> 100 µM	> 100 µM	> 100 µM	> 100 µM	> 100 µM	> 100 µM	> 100 µM	> 100 µM	> 100 µM	> 100 µM	> 100000 nM	> 100 µM	> 100 µM	> 100 µM	> 100000 nM	> 100 µM	> 100 µM	> 100000 nM	> 100 µM	> 100 µM
COc1ccc(S(=O)(=O)N2CCNCC2)cc1OC	> 100 µM	> 100 µM	> 100 µM	> 100 µM	> 100 µM	> 100 µM	> 100 µM	> 100 µM	> 100 µM	> 100 µM	> 100000 nM	> 100 µM	> 100 µM	> 100 µM	> 100000 nM	> 100 µM	> 100 µM	> 100000 nM	> 100 µM	> 100 µM
COc1ccc(OC)c(Cc2cnc3nc(N)nc(N)c3c2C)c1	47.2 µM	> 50.1 µM	43.8 µM	> 51 µM	48.1 µM	> 71.2 µM	20.3 µM	29.4 µM	> 84.7 µM	27.2 µM	–	–	–	–	–	–	–	–	–	–
[Cl][Cu][Cl]	> 10 µM	> 10 µM	> 10 µM	> 10 µM	> 10 µM	> 10 µM	> 10 µM	> 10 µM	> 10 µM	> 10 µM	> 10000 nM	> 10 µM	> 10 µM	> 10 µM	> 10000 nM	> 10 µM	> 10 µM	> 10000 nM	> 10 µM	> 10 µM
O=[N+]([O-])c1cc(Cc2cc([N+](=O)[O-])c3cccnc3c2O)c(O)c2ncccc12	18 µM	> 100 µM	> 77.7 µM	37.4 µM	76.1 µM	> 43.8 µM	> 96 µM	6.39 µM	48.3 µM	37.5 µM	–	–	–	–	–	–	–	–	–	–
CC(C)N(Cc1ccc(F)cc1)c1ccc(CO)c(Cl)c1	0.515 µM	21.8 µM	25.7 µM	27.2 µM	0.247 µM	26.4 µM	26.5 µM	33.4 µM	0.173 µM	17.9 µM	64.5 nM	3.31 µM	12.3 µM	14 µM	57.6 nM	13.1 µM	13.4 µM	28.3 nM	4.83 µM	12.1 µM
NC(=O)CC(N)c1nn[nH]n1 (stereo unspecified)	> 100 µM	> 100 µM	> 100 µM	> 100 µM	> 100 µM	> 100 µM	> 100 µM	> 100 µM	> 100 µM	> 100 µM	–	–	–	–	–	–	–	–	–	–
COc1c(OC(C)C)cc2cc(O)c(C(=O)NC3Cc4ccc(c(Cl)n4)O[C@@H]4C=C5C#C/C(=C\C#CC6OC56C4OC4CC(C)(O)C(O)C(C)O4)C(OC4CC(O)C(N(C)C)C(C)O4)COC3=O)cc2c1OC (stereo partly specified)	> 36.3 µM	> 36.3 µM and 1.79 µg/mL	> 36.3 µM	> 36.3 µM and 37.5 µg/mL	> 36.3 µM and 27.5 µg/mL	> 36.3 µM and 17.3 µg/mL	> 36.3 µM and 5.29 µg/mL	> 36.3 µM and 5.33 µg/mL	> 36.3 µM and 37.5 µg/mL	37.5 µg/mL	–	6.32 µM and 0.296 µg/mL	–	3.16 µg/mL	> 36.3 µM and 4.02 µg/mL	11.5 µM and 0.838 µg/mL	14.4 µM and 0.372 µg/mL	> 36.3 µM and 37.5 µg/mL	2.75 µg/mL	4.34 µM and 0.0317 µg/mL
O=c1[nH]c2ccccc2n1C1CCN(CCCC(c2ccc(F)cc2)c2ccc(F)cc2)CC1	2.67 µM and 17.7 µM	3.18 µM and 24.3 µM	3.31 µM and 23.6 µM	2.99 µM and 5.86 µM	3.51 µM and 22.8 µM	28.9 µM	3.58 µM and 9.28 µM	6.76 µM and 30.3 µM	2.95 µM and 16.1 µM	3.12 µM and 24.9 µM	1060 nM and 4220 nM	1.51 µM and 9.1 µM	1.72 µM and 8.47 µM	1.61 µM	1740 nM	–	1.88 µM and 3.35 µM	1540 nM and 6930 nM	1.56 µM	2.3 µM
N#Cc1cccc(Nc2ncc(-c3ccccc3)o2)c1	> 25 µM	> 25 µM	> 25 µM	> 25 µM	> 25 µM	> 25 µM	> 25 µM	> 25 µM	> 25 µM	19.6 µM	11700 nM	> 22.8 µM	> 20.7 µM	> 20.4 µM	16400 nM	17.3 µM	10.3 µM	16500 nM	8.4 µM	20.8 µM
